Test results from ChEMBL document CHEMBL6092167, “Phosphorylation as an Effective Tool to Improve Stability and Reduce Toxicity of Antimicrobial Peptides” (J Med Chem, 2024).
In brackets after ≈: the same amount, converted by molar mass. Non-standard residues stand in square brackets, D forms with d. Residues, ends and D or L forms follow the SMILES beside them. Bip = N[C@@H](Cc1ccc(-c2ccccc2)cc1)C(=O)O; pY = N[C@@H](Cc1ccc(OP(=O)(O)O)cc1)C(=O)O; pT = C[C@@H](OP(=O)(O)O)[C@H](N)C(=O)O; 2Nal = N[C@@H](Cc1ccc2ccccc2c1)C(=O)O

Key:
Pseudomonas aeruginosa [1] = assay: Antibacterial activity against Pseudomonas aeruginosa ATCC 27853 incubated for 18 to 24 hrs by broth microdilution method; type: functional; details: time 18-24 hrs
Staphylococcus aureus [2] = assay: Antibacterial activity against Staphylococcus aureus ATCC 25923 incubated for 18 to 24 hrs by broth microdilution method; type: functional; details: time 18-24 hrs
Bacillus subtilis = assay: Antibacterial activity against Bacillus subtilis ATCC 23857 incubated for 18 to 24 hrs by broth microdilution method; type: functional; details: time 18-24 hrs
Escherichia coli [3] = assay: Antibacterial activity against Escherichia coli 780 incubated for 18 to 24 hrs by broth microdilution method; type: functional; details: time 18-24 hrs
[4] = Hemolytic activity in mouse erythrocyte incubated for 1 hr by microplate reader assay; type: toxicity, cell-based
Escherichia coli [5] = assay: Antibacterial activity against Escherichia coli ATCC 25922 incubated for 18 to 24 hrs by broth microdilution method; type: functional; details: time 18-24 hrs
Staphylococcus aureus [6] = assay: Antibacterial activity against Staphylococcus aureus 794 incubated for 18 to 24 hrs by broth microdilution method; type: functional; details: time 18-24 hrs
Escherichia coli [7] = assay: Antibacterial activity against Escherichia coli 850 incubated for 18 to 24 hrs by broth microdilution method; type: functional; details: time 18-24 hrs
[8] = Cytotoxicity against HEK293T cells incubated for 1 hr by fluorescence based microplate reader assay; type: toxicity, cell-based, HEK-293T; details: human
Staphylococcus aureus [9] = assay: Antibacterial activity against methicillin resistant Staphylococcus aureus 48 incubated for 18 to 24 hrs by broth microdilution method; type: functional; details: time 18-24 hrs
Staphylococcus aureus [10] = assay: Antibacterial activity against methicillin resistant Staphylococcus aureus ATCC 33591 incubated for 18 to 24 hrs by broth microdilution method; type: functional; details: time 18-24 hrs
Acinetobacter baumannii = assay: Antibacterial activity against Acinetobacter baumannii ATCC 19606 incubated for 18 to 24 hrs by broth microdilution method; type: functional; details: time 18-24 hrs
Pseudomonas aeruginosa [11] = assay: Antibacterial activity against Pseudomonas aeruginosa 119 incubated for 18 to 24 hrs by broth microdilution method; type: functional; details: time 18-24 hrs
Klebsiella pneumoniae = assay: Antibacterial activity against Klebsiella pneumoniae ATCC 700603 incubated for 18 to 24 hrs by broth microdilution method; type: functional; details: time 18-24 hrs

SMILES: CC(C)C[C@H](NC(=O)[C@H](CC(C)C)NC(=O)[C@H](Cc1ccc(OP(=O)(O)O)cc1)NC(=O)[C@H](CCCCN)NC(=O)[C@H](Cc1c[nH]c2ccccc12)NC(=O)[C@H](CCCNC(=N)N)NC(=O)[C@H](CCCCN)NC(=O)[C@H](CC(C)C)NC(=O)[C@H](CC(C)C)NC(=O)CN)C(N)=O (H-GLLKRWK[pY]LL-NH2)
- MIC (Pseudomonas aeruginosa [1]): 128 µM (≈ 175 µg/mL)
- MIC (Staphylococcus aureus [2]): > 128 µM
- MIC (Bacillus subtilis): 64 µM (≈ 87.6 µg/mL)
- MIC (Escherichia coli [3]): 64 µM (≈ 87.6 µg/mL)
- MHC [4]: > 256 µM
- MIC (Escherichia coli [5]): 64 µM (≈ 87.6 µg/mL)
- MIC (Staphylococcus aureus [6]): 32 µM (≈ 43.8 µg/mL)
- MIC (Escherichia coli [7]): 64 µM (≈ 87.6 µg/mL)
- CC50 at 1 h [8]: > 128 µM
- MIC (Staphylococcus aureus [9]): > 128 µM
- MIC (Staphylococcus aureus [10]): > 128 µM
- MIC (Acinetobacter baumannii): 64 µM (≈ 87.6 µg/mL)
- MIC (Pseudomonas aeruginosa [11]): 128 µM (≈ 175 µg/mL)
- MIC (Klebsiella pneumoniae): 128 µM (≈ 175 µg/mL)

SMILES: CC(C)C[C@H](NC(=O)[C@H](CC(C)C)NC(=O)[C@@H](NC(=O)[C@H](CCCCN)NC(=O)[C@H](Cc1ccc2ccccc2c1)NC(=O)[C@H](CCCNC(=N)N)NC(=O)[C@H](CCCCN)NC(=O)[C@H](CC(C)C)NC(=O)[C@H](CC(C)C)NC(=O)CN)[C@@H](C)O)C(N)=O (H-GLLKR[2Nal]KTLL-NH2)
- MIC (Pseudomonas aeruginosa [1]): 4 µM (≈ 4.95 µg/mL)
- MIC (Staphylococcus aureus [2]): 16 µM (≈ 19.8 µg/mL)
- MIC (Bacillus subtilis): 4 µM (≈ 4.95 µg/mL)
- MIC (Escherichia coli [3]): 8 µM (≈ 9.9 µg/mL)
- MHC [4]: > 256 µM
- MIC (Escherichia coli [5]): 16 µM (≈ 19.8 µg/mL)
- MIC (Staphylococcus aureus [6]): 8 µM (≈ 9.9 µg/mL)
- MIC (Escherichia coli [7]): 16 µM (≈ 19.8 µg/mL)
- CC50 at 1 h [8]: 177 µM
- MIC (Staphylococcus aureus [9]): 16 µM (≈ 19.8 µg/mL)
- MIC (Staphylococcus aureus [10]): 16 µM (≈ 19.8 µg/mL)
- MIC (Acinetobacter baumannii): 32 µM (≈ 39.6 µg/mL)
- MIC (Pseudomonas aeruginosa [11]): 16 µM (≈ 19.8 µg/mL)
- MIC (Klebsiella pneumoniae): 16 µM (≈ 19.8 µg/mL)

SMILES: CC(C)C[C@H](NC(=O)[C@H](CC(C)C)NC(=O)[C@@H](NC(=O)[C@H](CCCCN)NC(=O)[C@H](Cc1ccc2ccccc2c1)NC(=O)[C@H](CCCNC(=N)N)NC(=O)[C@H](CCCCN)NC(=O)[C@H](CC(C)C)NC(=O)[C@H](CC(C)C)NC(=O)CN)[C@@H](C)OP(=O)(O)O)C(N)=O (H-GLLKR[2Nal]K[pT]LL-NH2)
- MIC (Pseudomonas aeruginosa [1]): 128 µM (≈ 169 µg/mL)
- MIC (Staphylococcus aureus [2]): > 128 µM
- MIC (Bacillus subtilis): 128 µM (≈ 169 µg/mL)
- MIC (Escherichia coli [3]): > 128 µM
- MHC [4]: > 256 µM
- MIC (Escherichia coli [5]): > 128 µM
- MIC (Staphylococcus aureus [6]): 128 µM (≈ 169 µg/mL)
- MIC (Escherichia coli [7]): 128 µM (≈ 169 µg/mL)
- CC50 at 1 h [8]: > 128 µM
- MIC (Staphylococcus aureus [9]): > 128 µM
- MIC (Staphylococcus aureus [10]): > 128 µM
- MIC (Acinetobacter baumannii): 128 µM (≈ 169 µg/mL)
- MIC (Pseudomonas aeruginosa [11]): 128 µM (≈ 169 µg/mL)
- MIC (Klebsiella pneumoniae): > 128 µM

SMILES: CC(C)C[C@H](NC(=O)[C@H](CC(C)C)NC(=O)[C@@H](NC(=O)[C@H](CCCCN)NC(=O)[C@H](Cc1ccc(-c2ccccc2)cc1)NC(=O)[C@H](CCCNC(=N)N)NC(=O)[C@H](CCCCN)NC(=O)[C@H](CC(C)C)NC(=O)[C@H](CC(C)C)NC(=O)CN)[C@@H](C)O)C(N)=O (H-GLLKR[Bip]KTLL-NH2)
- MIC (Pseudomonas aeruginosa [1]): 4 µM (≈ 5.05 µg/mL)
- MIC (Staphylococcus aureus [2]): 16 µM (≈ 20.2 µg/mL)
- MIC (Bacillus subtilis): 4 µM (≈ 5.05 µg/mL)
- MIC (Escherichia coli [3]): 8 µM (≈ 10.1 µg/mL)
- MHC [4]: 145.56 µM
- MIC (Escherichia coli [5]): 8 µM (≈ 10.1 µg/mL)
- MIC (Staphylococcus aureus [6]): 8 µM (≈ 10.1 µg/mL)
- MIC (Escherichia coli [7]): 8 µM (≈ 10.1 µg/mL)
- CC50 at 1 h [8]: 127 µM
- MIC (Staphylococcus aureus [9]): 8 µM (≈ 10.1 µg/mL)
- MIC (Staphylococcus aureus [10]): 8 µM (≈ 10.1 µg/mL)
- MIC (Acinetobacter baumannii): 16 µM (≈ 20.2 µg/mL)
- MIC (Pseudomonas aeruginosa [11]): 16 µM (≈ 20.2 µg/mL)
- MIC (Klebsiella pneumoniae): 8 µM (≈ 10.1 µg/mL)

SMILES: CC(C)C[C@H](NC(=O)[C@H](CC(C)C)NC(=O)[C@H](Cc1ccc(O)cc1)NC(=O)[C@H](CCCCN)NC(=O)[C@H](Cc1ccc(-c2ccccc2)cc1)NC(=O)[C@H](CCCNC(=N)N)NC(=O)[C@H](CCCCN)NC(=O)[C@H](CC(C)C)NC(=O)[C@H](CC(C)C)NC(=O)CN)C(N)=O (H-GLLKR[Bip]KYLL-NH2)
- MIC (Pseudomonas aeruginosa [1]): 8 µM (≈ 10.6 µg/mL)
- MIC (Staphylococcus aureus [2]): 8 µM (≈ 10.6 µg/mL)
- MIC (Bacillus subtilis): 4 µM (≈ 5.3 µg/mL)
- MIC (Escherichia coli [3]): 8 µM (≈ 10.6 µg/mL)
- MHC [4]: 99.53 µM
- MIC (Escherichia coli [5]): 8 µM (≈ 10.6 µg/mL)
- MIC (Staphylococcus aureus [6]): 8 µM (≈ 10.6 µg/mL)
- MIC (Escherichia coli [7]): 8 µM (≈ 10.6 µg/mL)
- CC50 at 1 h [8]: 82.3 µM
- MIC (Staphylococcus aureus [9]): 8 µM (≈ 10.6 µg/mL)
- MIC (Staphylococcus aureus [10]): 8 µM (≈ 10.6 µg/mL)
- MIC (Acinetobacter baumannii): 16 µM (≈ 21.2 µg/mL)
- MIC (Pseudomonas aeruginosa [11]): 8 µM (≈ 10.6 µg/mL)
- MIC (Klebsiella pneumoniae): 8 µM (≈ 10.6 µg/mL)

SMILES: CC(C)C[C@H](NC(=O)[C@H](CC(C)C)NC(=O)[C@@H](NC(=O)[C@H](CCCCN)NC(=O)[C@H](Cc1ccc(-c2ccccc2)cc1)NC(=O)[C@H](CCCNC(=N)N)NC(=O)[C@H](CCCCN)NC(=O)[C@H](CC(C)C)NC(=O)[C@H](CC(C)C)NC(=O)CN)[C@@H](C)OP(=O)(O)O)C(N)=O (H-GLLKR[Bip]K[pT]LL-NH2)
- MIC (Pseudomonas aeruginosa [1]): 64 µM (≈ 86 µg/mL)
- MIC (Staphylococcus aureus [2]): 128 µM (≈ 172 µg/mL)
- MIC (Bacillus subtilis): 32 µM (≈ 43 µg/mL)
- MIC (Escherichia coli [3]): 32 µM (≈ 43 µg/mL)
- MHC [4]: > 256 µM
- MIC (Escherichia coli [5]): 64 µM (≈ 86 µg/mL)
- MIC (Staphylococcus aureus [6]): 32 µM (≈ 43 µg/mL)
- MIC (Escherichia coli [7]): 64 µM (≈ 86 µg/mL)
- CC50 at 1 h [8]: 131 µM
- MIC (Staphylococcus aureus [9]): 128 µM (≈ 172 µg/mL)
- MIC (Staphylococcus aureus [10]): 128 µM (≈ 172 µg/mL)
- MIC (Acinetobacter baumannii): 64 µM (≈ 86 µg/mL)
- MIC (Pseudomonas aeruginosa [11]): 128 µM (≈ 172 µg/mL)
- MIC (Klebsiella pneumoniae): 128 µM (≈ 172 µg/mL)

SMILES: CC(C)C[C@H](NC(=O)[C@H](CC(C)C)NC(=O)[C@H](Cc1ccc(OP(=O)(O)O)cc1)NC(=O)[C@H](CCCCN)NC(=O)[C@H](Cc1ccc(-c2ccccc2)cc1)NC(=O)[C@H](CCCNC(=N)N)NC(=O)[C@H](CCCCN)NC(=O)[C@H](CC(C)C)NC(=O)[C@H](CC(C)C)NC(=O)CN)C(N)=O (H-GLLKR[Bip]K[pY]LL-NH2)
- MIC (Pseudomonas aeruginosa [1]): 32 µM (≈ 45 µg/mL)
- MIC (Staphylococcus aureus [2]): 16 µM (≈ 22.5 µg/mL)
- MIC (Bacillus subtilis): 8 µM (≈ 11.2 µg/mL)
- MIC (Escherichia coli [3]): 16 µM (≈ 22.5 µg/mL)
- MHC [4]: 131.69 µM
- MIC (Escherichia coli [5]): 8 µM (≈ 11.2 µg/mL)
- MIC (Staphylococcus aureus [6]): 8 µM (≈ 11.2 µg/mL)
- MIC (Escherichia coli [7]): 16 µM (≈ 22.5 µg/mL)
- CC50 at 1 h [8]: 110 µM
- MIC (Staphylococcus aureus [9]): 8 µM (≈ 11.2 µg/mL)
- MIC (Staphylococcus aureus [10]): 8 µM (≈ 11.2 µg/mL)
- MIC (Acinetobacter baumannii): 8 µM (≈ 11.2 µg/mL)
- MIC (Pseudomonas aeruginosa [11]): 32 µM (≈ 45 µg/mL)
- MIC (Klebsiella pneumoniae): 16 µM (≈ 22.5 µg/mL)
